# Measured values reported in patent US20250177357A1, “METHODS FOR TREATING HYPERTROPHIC CARDIOMYOPATHY” (priority 2021, published 2025).
# Tests used:
# [1] = test system: healthy adults; assay: Phase 1 ECG (QTcF), vital signs and clinical laboratory safety; type: in vivo, human
# Method: Safety and tolerability. Safety was assessed by the incidence of adverse events (AEs) and by incidence of reduced LVEF. Treatment-emergent AEs (TEAE) were defined as AEs that began or increased after study drug administration. All AEs were coded using the Medical Dictionary for Regulatory Activities version 21.1 and graded using the National Cancer Institute Common Terminology Criteria for AEs (version 4.03) 5-point severity scale. Each AE was judged as either related or unrelated to the study drug by the treating investigator. Clinical laboratory tests were obtained at regular intervals in all cohorts.
# For safety monitoring, participants in all cohorts had periodic echocardiograms, which were assessed by a cardiologist. In the SAD and MAD cohorts, echocardiograms were also reviewed by an echocardiography core laboratory for PD assessments, as described below. In addition, participants in all cohorts were monitored with continuous 12-lead ECG recording using Holter monitors. For safety monitoring, a single 12-lead ECG was extracted at screening, pre-dose, and periodically throughout follow-up, and interpreted by the investigator. In the SAD, MAD, and CYP2D6-PM cohorts, cardiodynamic ECGs (triplicate 10-second, 12-lead ECG recordings) were obtained prior to the corresponding PK blood and ECG intervals quantitated by qualified readers.
# [2] = test system: patients with symptomatic obstructive HCM (oHCM) receiving disopyramide; assay: Phase 2 trial in oHCM, Cohort 3: CK-274 in combination with disopyramide; type: in vivo, human
# From the text: Cohort 3 included patients receiving disopyramide.
# Body weight was ≥45 kg at screening; 4. […] Adequate acoustic windows for echocardiography; 6. Had LVOT-G during screening as follows for Cohorts 1 and 2: (a) resting gradient≥50 mmHg; or (b) resting gradient≥30 mmHg and <50 mmHg with post-Valsalva LVOT-G≥50 mmHg; or as follows for Cohort 3: persistent resting LVOT obstruction (≥30 mmHg) and provoked LVOT obstruction (≥50 mmHg); 7. Left ventricular ejection fraction (LVEF)≥60% at screening; 8. […] Taking stable doses of disopyramide for >4 weeks prior to screening (Cohort 3 only).
# Patients up-titrated to Dose 2 if either of the following conditions were met on echocardiography: (1) resting LVOT-G≥30 mmHg and the biplane LVEF≥50%; or (2) resting LVOT-G<30 mmHg, post-Valsalva LVOT-G≥50 mmHg, and the biplane LVEF≥50%. Otherwise, the patient remains on Dose 1. If LVEF is <50% at Week 2, the patient was down-titrated to placebo.
# Overall, treatment duration for each patient in the study was 10 weeks with an echocardiogram conducted 2 weeks after the last dose. Efficacy endpoints included resting and provoked LVOT gradients, NYHA class, and NT-proBNP.
smiles,measurement,setting,value
"CCc1nc(-c2ccc3c(c2)CC[C@H]3NC(=O)c2cnn(C)c2)no1 [aficamten, (R)—N-(5-(5-ethyl-1,2,4-oxadiazol-3-yl)-2,3-dihydro-1H-inden-1-yl)-1-methyl-1H-pyrazole-4-carboxamide]","Serum chemistry, hematology, urinalysis findings",[1]; all Phase 1 cohorts,"No clinically significant serum chemistry, hematology, or urinalysis findings"
same,Increases in QTcF interval,[1]; all cohorts (exception: 1 placebo participant),≤ 30 ms
same,QTcF at baseline or any assessment during the dosing interval,"[1]; all cohorts, exception of 2 individuals with baseline QTcF ≥440 ms",≤ 450 ms
same,QT effect in cardiodynamic assessments,[1]; single or multiple doses,no evidence of a positive QT effect
same,Moderate adverse events recorded,[2]; Cohort 3,six
same,New York Heart Association functional class,[2]; Cohort 3,improved in the majority of patients
same,Patients whose LVEF fell below the safety threshold of 50%,[2]; Cohort 3,no patients
same,Serious adverse events attributed to treatment,[2]; Cohort 3,no serious adverse events attributed to treatment
same,Average resting and post-Valsalva LVOT-G,"[2]; Cohort 3, 5, 10, 15 mg, 10 weeks",substantial reductions
same,Patients with AEs related to study drug (per investigator),"[2]; Cohort 3, 13 patients",2 (15.4) N (%)
same,Patients with TEAEs leading to drug interruption or termination,"[2]; Cohort 3, 13 patients",0 N (%)
same,Patients with TESAEs,"[2]; Cohort 3, 13 patients",0 N (%)
same,Patients with at least one TEAE,"[2]; Cohort 3, 13 patients",9 (69) N (%)
same,Patients with fatal TEAEs,"[2]; Cohort 3, 13 patients",0 N (%)
same,TEAE of LVEF <50% (Core Lab),"[2]; Cohort 3, 13 patients",0 N (%)
same,Adverse events of asymptomatic atrial fibrillation,"[2]; Cohort 3, patient with known prior history",One
same,Effect on LVOT-G compared with Cohort 1 patients (same CK-274 dose),"[2]; Cohort 3, patients treated with disopyramide",mostly attenuated
